Test results as given in ChEMBL document CHEMBL1671689, “Activity of ceftaroline against recent emerging serotypes of Streptococcus pneumoniae in the United States” (2010).

Columns and labels:
Type in all cases: functional
Streptococcus pneumoniae [1] = assay: Antimicrobial activity against Streptococcus pneumoniae serotype 19A by broth microdilution method in presence of beta-lactamase inhibitor clavulanic acid
Streptococcus pneumoniae [2] = assay: Antimicrobial activity against Streptococcus pneumoniae serotype 3 by broth microdilution method in presence of beta-lactamase inhibitor clavulanic acid
Streptococcus pneumoniae [3] = assay: Antimicrobial activity against Streptococcus pneumoniae serotype 35B by broth microdilution method in presence of beta-lactamase inhibitor clavulanic acid
Streptococcus pneumoniae [4] = assay: Antimicrobial activity against Streptococcus pneumoniae serotype 7F by broth microdilution method in presence of beta-lactamase inhibitor clavulanic acid
Streptococcus pneumoniae [5] = assay: Antimicrobial activity against Streptococcus pneumoniae serotype 11A by broth microdilution method in presence of beta-lactamase inhibitor clavulanic acid
Streptococcus pneumoniae [6] = assay: Antimicrobial activity against Streptococcus pneumoniae serotype 6C by broth microdilution method in presence of beta-lactamase inhibitor clavulanic acid
Streptococcus pneumoniae [7] = assay: Antimicrobial activity against multiple drug resistant Streptococcus pneumoniae serotype 19A by broth microdilution method in presence of beta-lactamase inhibitor clavulanic acid
Streptococcus pneumoniae [8] = assay: Antimicrobial activity against multiple drug resistant Streptococcus pneumoniae serotype 19F by broth microdilution method in presence of beta-lactamase inhibitor clavulanic acid
Streptococcus pneumoniae [9] = assay: Antimicrobial activity against multiple drug resistant Streptococcus pneumoniae serotype 6B by broth microdilution method in presence of beta-lactamase inhibitor clavulanic acid
Streptococcus pneumoniae [10] = assay: Antimicrobial activity against Streptococcus pneumoniae serotype 19A assessed as percent susceptible isolates by broth microdilution method in presence of beta-lactamase inhibitor clavulanic acid
Streptococcus pneumoniae [11] = assay: Antimicrobial activity against Streptococcus pneumoniae serotype 3 assessed as percent susceptible isolates by broth microdilution method in presence of beta-lactamase inhibitor clavulanic acid
Streptococcus pneumoniae [12] = assay: Antimicrobial activity against Streptococcus pneumoniae serotype 35B assessed as percent susceptible isolates by broth microdilution method in presence of beta-lactamase inhibitor clavulanic acid
Streptococcus pneumoniae [13] = assay: Antimicrobial activity against Streptococcus pneumoniae serotype 7F assessed as percent susceptible isolates by broth microdilution method in presence of beta-lactamase inhibitor clavulanic acid
Streptococcus pneumoniae [14] = assay: Antimicrobial activity against Streptococcus pneumoniae serotype 11A assessed as percent susceptible isolates by broth microdilution method in presence of beta-lactamase inhibitor clavulanic acid
Streptococcus pneumoniae [15] = assay: Antimicrobial activity against Streptococcus pneumoniae serotype 6C assessed as percent susceptible isolates by broth microdilution method in presence of beta-lactamase inhibitor clavulanic acid
Streptococcus pneumoniae [16] = assay: Antimicrobial activity against multiple drug resistant Streptococcus pneumoniae serotype 19A assessed as percent susceptible isolates by broth microdilution method in presence of beta-lactamase inhibitor clavulanic acid
Streptococcus pneumoniae [17] = assay: Antimicrobial activity against multiple drug resistant Streptococcus pneumoniae serotype 19F assessed as percent susceptible isolates by broth microdilution method in presence of beta-lactamase inhibitor clavulanic acid
Streptococcus pneumoniae [18] = assay: Antimicrobial activity against multiple drug resistant Streptococcus pneumoniae serotype 6B assessed as percent susceptible isolates by broth microdilution method in presence of beta-lactamase inhibitor clavulanic acid
Streptococcus pneumoniae [19] = assay: Antimicrobial activity against Streptococcus pneumoniae serotype 15A assessed as percent susceptible isolates by broth microdilution method in presence of beta-lactamase inhibitor clavulanic acid
Streptococcus pneumoniae [20] = assay: Antimicrobial activity against Streptococcus pneumoniae serotype 22F assessed as percent susceptible isolates by broth microdilution method in presence of beta-lactamase inhibitor clavulanic acid
Streptococcus pneumoniae [21] = assay: Antimicrobial activity against Streptococcus pneumoniae serotype 23A assessed as percent susceptible isolates by broth microdilution method in presence of beta-lactamase inhibitor clavulanic acid
Streptococcus pneumoniae [22] = assay: Antimicrobial activity against Streptococcus pneumoniae serotype 23B assessed as percent susceptible isolates by broth microdilution method in presence of beta-lactamase inhibitor clavulanic acid
Streptococcus pneumoniae [23] = assay: Antimicrobial activity against Streptococcus pneumoniae serotype 19F assessed as percent susceptible isolates by broth microdilution method in presence of beta-lactamase inhibitor clavulanic acid
Streptococcus pneumoniae [24] = assay: Antimicrobial activity against Streptococcus pneumoniae serotype 15A assessed as percent susceptible isolates by broth microdilution method
Streptococcus pneumoniae [25] = assay: Antimicrobial activity against Streptococcus pneumoniae serotype 19A by broth microdilution method
Streptococcus pneumoniae [26] = assay: Antimicrobial activity against Streptococcus pneumoniae serotype 3 by broth microdilution method
Streptococcus pneumoniae [27] = assay: Antimicrobial activity against Streptococcus pneumoniae serotype 35B by broth microdilution method
Streptococcus pneumoniae [28] = assay: Antimicrobial activity against Streptococcus pneumoniae serotype 7F by broth microdilution method
Streptococcus pneumoniae [29] = assay: Antimicrobial activity against Streptococcus pneumoniae serotype 11A by broth microdilution method
Streptococcus pneumoniae [30] = assay: Antimicrobial activity against Streptococcus pneumoniae serotype 6C by broth microdilution method
Streptococcus pneumoniae [31] = assay: Antimicrobial activity against multiple drug resistant Streptococcus pneumoniae serotype 19A by broth microdilution method
Streptococcus pneumoniae [32] = assay: Antimicrobial activity against multiple drug resistant Streptococcus pneumoniae serotype 19F by broth microdilution method
Streptococcus pneumoniae [33] = assay: Antimicrobial activity against multiple drug resistant Streptococcus pneumoniae serotype 6B by broth microdilution method
Streptococcus pneumoniae [34] = assay: Antimicrobial activity against Streptococcus pneumoniae serotype 19A assessed as percent susceptible isolates by broth microdilution method
Streptococcus pneumoniae [35] = assay: Antimicrobial activity against Streptococcus pneumoniae serotype 3 assessed as percent susceptible isolates by broth microdilution method
Streptococcus pneumoniae [36] = assay: Antimicrobial activity against Streptococcus pneumoniae serotype 35B assessed as percent susceptible isolates by broth microdilution method
Streptococcus pneumoniae [37] = assay: Antimicrobial activity against Streptococcus pneumoniae serotype 7F assessed as percent susceptible isolates by broth microdilution method
Streptococcus pneumoniae [38] = assay: Antimicrobial activity against Streptococcus pneumoniae serotype 11A assessed as percent susceptible isolates by broth microdilution method
Streptococcus pneumoniae [39] = assay: Antimicrobial activity against Streptococcus pneumoniae serotype 6C assessed as percent susceptible isolates by broth microdilution method
Streptococcus pneumoniae [40] = assay: Antimicrobial activity against multiple drug resistant Streptococcus pneumoniae serotype 19A assessed as percent susceptible isolates by broth microdilution method
Streptococcus pneumoniae [41] = assay: Antimicrobial activity against multiple drug resistant Streptococcus pneumoniae serotype 19F assessed as percent susceptible isolates by broth microdilution method
Streptococcus pneumoniae [42] = assay: Antimicrobial activity against multiple drug resistant Streptococcus pneumoniae serotype 6B assessed as percent susceptible isolates by broth microdilution method
Streptococcus pneumoniae [43] = assay: Antimicrobial activity against Streptococcus pneumoniae serotype 22F assessed as percent susceptible isolates by broth microdilution method
Streptococcus pneumoniae [44] = assay: Antimicrobial activity against Streptococcus pneumoniae serotype 23B assessed as percent susceptible isolates by broth microdilution method
Streptococcus pneumoniae [45] = assay: Antimicrobial activity against Streptococcus pneumoniae serotype 19F assessed as percent susceptible isolates by broth microdilution method
Streptococcus pneumoniae [46] = assay: Antimicrobial activity against Streptococcus pneumoniae serotype 23A assessed as percent susceptible isolates by broth microdilution method

CC1(C)S[C@@H]2[C@H](NC(=O)[C@H](N)c3ccc(O)cc3)C(=O)N2[C@H]1C(=O)O [AMOXICILLIN]
≤ 1 µg/mL: MIC (Streptococcus pneumoniae [2]) | MIC50 (Streptococcus pneumoniae [2]) | MIC90 (Streptococcus pneumoniae [2]) | MIC (Streptococcus pneumoniae [4]) | MIC50 (Streptococcus pneumoniae [4]) | MIC90 (Streptococcus pneumoniae [4]) | MIC (Streptococcus pneumoniae [5]) | MIC50 (Streptococcus pneumoniae [5]) | MIC90 (Streptococcus pneumoniae [5]) | MIC (Streptococcus pneumoniae [6]) | MIC50 (Streptococcus pneumoniae [6]) | MIC90 (Streptococcus pneumoniae [6])
45%: Activity (Streptococcus pneumoniae [10])
8.1%: Activity (Streptococcus pneumoniae [16]) | Activity (Streptococcus pneumoniae [17]) | Activity (Streptococcus pneumoniae [18])
100%: Activity (Streptococcus pneumoniae [11]) | Activity (Streptococcus pneumoniae [15]) | Activity (Streptococcus pneumoniae [19]) | Activity (Streptococcus pneumoniae [20]) | Activity (Streptococcus pneumoniae [21]) | Activity (Streptococcus pneumoniae [22]) | Activity (Streptococcus pneumoniae [24])
8 µg/mL: MIC50 (Streptococcus pneumoniae [1]) | MIC90 (Streptococcus pneumoniae [1]) | MIC50 (Streptococcus pneumoniae [7]) | MIC50 (Streptococcus pneumoniae [8]) | MIC50 (Streptococcus pneumoniae [9])
62.7%: Activity (Streptococcus pneumoniae [12]) | Activity (Streptococcus pneumoniae [13])
98%: Activity (Streptococcus pneumoniae [14])
4 µg/mL: MIC90 (Streptococcus pneumoniae [3])
37.9%: Activity (Streptococcus pneumoniae [23])
16 µg/mL: MIC90 (Streptococcus pneumoniae [7]) | MIC90 (Streptococcus pneumoniae [8]) | MIC90 (Streptococcus pneumoniae [9])
2 µg/mL: MIC50 (Streptococcus pneumoniae [3])

C[C@H]1COc2c(N3CCN(C)CC3)c(F)cc3c(=O)c(C(=O)O)cn1c23.C[C@H]1COc2c(N3CCN(C)CC3)c(F)cc3c(=O)c(C(=O)O)cn1c23.O [LEVOFLOXACIN]
2 µg/mL: MIC90 (Streptococcus pneumoniae [29])
98.3%: Activity (Streptococcus pneumoniae [36]) | Activity (Streptococcus pneumoniae [37])
100%: Activity (Streptococcus pneumoniae [34]) | Activity (Streptococcus pneumoniae [35]) | Activity (Streptococcus pneumoniae [38]) | Activity (Streptococcus pneumoniae [39]) | Activity (Streptococcus pneumoniae [24]) | Activity (Streptococcus pneumoniae [43]) | Activity (Streptococcus pneumoniae [46])
96.6%: Activity (Streptococcus pneumoniae [45])
99.2%: Activity (Streptococcus pneumoniae [40]) | Activity (Streptococcus pneumoniae [41]) | Activity (Streptococcus pneumoniae [42])
97%: Activity (Streptococcus pneumoniae [44])
1 µg/mL: MIC50 (Streptococcus pneumoniae [25]) | MIC90 (Streptococcus pneumoniae [25]) | MIC50 (Streptococcus pneumoniae [26]) | MIC90 (Streptococcus pneumoniae [26]) | MIC50 (Streptococcus pneumoniae [27]) | MIC90 (Streptococcus pneumoniae [27]) | MIC50 (Streptococcus pneumoniae [28]) | MIC90 (Streptococcus pneumoniae [28]) | MIC50 (Streptococcus pneumoniae [29]) | MIC50 (Streptococcus pneumoniae [30]) | MIC90 (Streptococcus pneumoniae [30]) | MIC50 (Streptococcus pneumoniae [31]) | MIC90 (Streptococcus pneumoniae [31]) | MIC50 (Streptococcus pneumoniae [32]) | MIC90 (Streptococcus pneumoniae [32]) | MIC50 (Streptococcus pneumoniae [33]) | MIC90 (Streptococcus pneumoniae [33])

CN[C@H](CC(C)C)C(=O)N[C@H]1C(=O)N[C@@H](CC(N)=O)C(=O)N[C@H]2C(=O)N[C@H]3C(=O)N[C@H](C(=O)N[C@H](C(=O)O)c4cc(O)cc(O)c4-c4cc3ccc4O)[C@H](O)c3ccc(c(Cl)c3)Oc3cc2cc(c3O[C@@H]2O[C@H](CO)[C@@H](O)[C@H](O)[C@H]2O[C@H]2C[C@](C)(N)[C@H](O)[C@H](C)O2)Oc2ccc(cc2Cl)[C@H]1O [VANCOMYCIN]
100%: Activity (Streptococcus pneumoniae [34]) | Activity (Streptococcus pneumoniae [35]) | Activity (Streptococcus pneumoniae [36]) | Activity (Streptococcus pneumoniae [37]) | Activity (Streptococcus pneumoniae [38]) | Activity (Streptococcus pneumoniae [39]) | Activity (Streptococcus pneumoniae [40]) | Activity (Streptococcus pneumoniae [41]) | Activity (Streptococcus pneumoniae [42]) | Activity (Streptococcus pneumoniae [24]) | Activity (Streptococcus pneumoniae [43]) | Activity (Streptococcus pneumoniae [44]) | Activity (Streptococcus pneumoniae [45]) | Activity (Streptococcus pneumoniae [46])
≤ 1 µg/mL: MIC (Streptococcus pneumoniae [25]) | MIC50 (Streptococcus pneumoniae [25]) | MIC90 (Streptococcus pneumoniae [25]) | MIC (Streptococcus pneumoniae [26]) | MIC50 (Streptococcus pneumoniae [26]) | MIC90 (Streptococcus pneumoniae [26]) | MIC (Streptococcus pneumoniae [27]) | MIC50 (Streptococcus pneumoniae [27]) | MIC90 (Streptococcus pneumoniae [27]) | MIC (Streptococcus pneumoniae [28]) | MIC50 (Streptococcus pneumoniae [28]) | MIC90 (Streptococcus pneumoniae [28]) | MIC (Streptococcus pneumoniae [29]) | MIC50 (Streptococcus pneumoniae [29]) | MIC90 (Streptococcus pneumoniae [29]) | MIC (Streptococcus pneumoniae [30]) | MIC50 (Streptococcus pneumoniae [30]) | MIC90 (Streptococcus pneumoniae [30]) | MIC (Streptococcus pneumoniae [31]) | MIC50 (Streptococcus pneumoniae [31]) | MIC90 (Streptococcus pneumoniae [31]) | MIC (Streptococcus pneumoniae [32]) | MIC50 (Streptococcus pneumoniae [32]) | MIC90 (Streptococcus pneumoniae [32]) | MIC (Streptococcus pneumoniae [33]) | MIC50 (Streptococcus pneumoniae [33]) | MIC90 (Streptococcus pneumoniae [33])

CC[C@H]1OC(=O)[C@H](C)[C@@H](O[C@H]2C[C@@](C)(OC)[C@@H](O)[C@H](C)O2)[C@H](C)[C@@H](O[C@@H]2O[C@H](C)C[C@H](N(C)C)[C@H]2O)[C@](C)(O)C[C@@H](C)C(=O)[C@H](C)[C@@H](O)[C@]1(C)O [ERYTHROMYCIN]
95.1%: Activity (Streptococcus pneumoniae [35])
78.8%: Activity (Streptococcus pneumoniae [46])
75.5%: Activity (Streptococcus pneumoniae [38])
41.9%: Activity (Streptococcus pneumoniae [39])
17.2%: Activity (Streptococcus pneumoniae [45])
5.3%: Activity (Streptococcus pneumoniae [24])
75.8%: Activity (Streptococcus pneumoniae [44])
88.6%: Activity (Streptococcus pneumoniae [43])
64.4%: Activity (Streptococcus pneumoniae [36]) | Activity (Streptococcus pneumoniae [37])
26.5%: Activity (Streptococcus pneumoniae [34])
≤ 0.25 µg/mL: MIC50 (Streptococcus pneumoniae [26]) | MIC90 (Streptococcus pneumoniae [26]) | MIC50 (Streptococcus pneumoniae [27]) | MIC (Streptococcus pneumoniae [28]) | MIC50 (Streptococcus pneumoniae [28]) | MIC90 (Streptococcus pneumoniae [28]) | MIC50 (Streptococcus pneumoniae [29])
> 2 µg/mL: MIC50 (Streptococcus pneumoniae [25]) | MIC90 (Streptococcus pneumoniae [25]) | MIC90 (Streptococcus pneumoniae [27]) | MIC90 (Streptococcus pneumoniae [29]) | MIC50 (Streptococcus pneumoniae [30]) | MIC90 (Streptococcus pneumoniae [30])
0%: Activity (Streptococcus pneumoniae [40]) | Activity (Streptococcus pneumoniae [41]) | Activity (Streptococcus pneumoniae [42])
> 8 µg/mL: MIC (Streptococcus pneumoniae [31]) | MIC50 (Streptococcus pneumoniae [31]) | MIC90 (Streptococcus pneumoniae [31]) | MIC (Streptococcus pneumoniae [32]) | MIC50 (Streptococcus pneumoniae [32]) | MIC90 (Streptococcus pneumoniae [32]) | MIC (Streptococcus pneumoniae [33]) | MIC50 (Streptococcus pneumoniae [33]) | MIC90 (Streptococcus pneumoniae [33])
